In the supplement of paper PMC10307832:

How the values were obtained:
Test in all cases: relative viability (nuclei count vs DMSO), 5 days (fraction); higher = more cells survive
[1] = compound: C1/C(=C\C2=CC=CS2)/C(=O)/C(=C/C3=CC=CS3)/C1 + CC(C)C[C@H](NC(=O)[C@H](Cc1ccccc1)NC(=O)c1cnccn1)B(O)O [Bortezomib] (partner 0.002 µM)
Outline: (§1)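 Relative viability was taken as the ratio of nuclei in treated wells to nuclei in vehicle wells. Lung cancer cell lines in 1536-well plates received compounds by pin tool one day after seeding, either one drug alone or a fixed anchor-drug dose plus five library-drug doses (not always all listed) in √10 steps. Nuclei were counted on 4× images after 5 days of treatment, and values are medians of duplicate plates.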

[2] = compound: C1/C(=C\C2=CC=CS2)/C(=O)/C(=C/C3=CC=CS3)/C1 + C[C@]1(O)C[C@@H](c2nc(-c3ccc4ccc(-c5ccccc5)nc4c3)c3c(N)nccn32)C1 [Linsitinib] (partner 1 µM)
Outline: as §1

[3] = compound: C1/C(=C\C2=CC=CS2)/C(=O)/C(=C/C3=CC=CS3)/C1 + Cc1nc(NC(=O)N2CCC[C@H]2C(N)=O)sc1-c1ccnc(C(C)(C)C(F)(F)F)c1 [Alpelisib] (partner 2 µM)
Outline: as §1

[4] = compound: C1/C(=C\C2=CC=CS2)/C(=O)/C(=C/C3=CC=CS3)/C1 + COc1cc2c(Oc3ccc(NC(=O)C4(C(=O)Nc5ccc(F)cc5)CC4)cc3F)ccnc2cc1OCCCN1CCOCC1 [Foretinib] (partner 0.25 µM)
Outline: as §1

[5] = compound: C1=CC(=CC=C1C2=CC(=C(S2)NC(=O)N)C(=O)N)F [TPCA-1] + O=C(CCCCCCC(=O)Nc1ccccc1)NO [Vorinostat] (partner 1 µM)
Outline: as §1

Which relative viability ([1]; first compound 0.2 µM) does the source give for UMC-11 here?
Its relative viability is 0.717.

What about the relative viability ([1]; first compound 0.6325 µM) of the same cell line?
Its relative viability is 0.579.

What about the relative viability ([1]; first compound 2 µM) of the same cell line?
The relative viability was 0.639.

And the relative viability ([1]; first compound 20 µM)?
Its relative viability is 0.597.

And the relative viability ([2]; first compound 0.2 µM)?
Its relative viability is 1.02.

And the relative viability ([2]; first compound 0.6325 µM)?
Its relative viability is 1.07.

And the relative viability ([2]; first compound 2 µM)?
The relative viability was 1.03.

What about the relative viability ([2]; first compound 20 µM) of the same cell line?
Its relative viability is 1.

What about the relative viability ([3]; first compound 0.2 µM) of the same cell line?
The relative viability was 1.04.

And the relative viability ([3]; first compound 0.6325 µM)?
Its relative viability is 1.1.

What about the relative viability ([3]; first compound 2 µM) of the same cell line?
The relative viability was 0.847.

What about the relative viability ([3]; first compound 20 µM) of the same cell line?
The relative viability was 0.952.

And the relative viability ([4]; first compound 0.2 µM)?
Its relative viability is 0.993.

And the relative viability ([4]; first compound 0.6325 µM)?
The relative viability was 1.12.

What about the relative viability ([4]; first compound 20 µM) of the same cell line?
Its relative viability is 1.03.

What about the relative viability ([5]; first compound 0.04 µM) of the same cell line?
The relative viability was 0.447.

What about the relative viability ([5]; first compound 0.1265 µM) of the same cell line?
Its relative viability is 0.358.

What about the relative viability ([5]; first compound 0.4 µM) of the same cell line?
The relative viability was 0.368.

What about the relative viability ([5]; first compound 1.265 µM) of the same cell line?
Its relative viability is 0.378.

What about the relative viability ([5]; first compound 4 µM) of the same cell line?
The relative viability was 0.214.
